Assays:
[1] = pH reduction of an environment by bacterial strain (Table 1, (b)); settings: capable of reducing the pH of an environment from 7.5 or higher to less than 7.5
Description: (§1) Exemplary bacterial strains determined to be capable of (b) reducing the pH of an environment from 7.5 or higher to less than 7.5; (c) reducing the abundance of one or more VSCs in an environment having a pH of less than 7.5; and/or (d) enhances the reduction of one or more VSCs by another bacterial strain in an environment with a pH of 7.5 or higher, are listed below in Table 1.

[2] = test system: volatile sulfur compounds (VSCs); experiment: VSC reduction in an environment having a pH of less than 7.5 (Table 1, (c)); settings: capable of reducing the abundance of one or more VSCs in an environment having a pH of less than 7.5
Description: as §1
Some bacterial strains of compositions, nutritional supplements, dental supplements, and food products were identified based on the ability to reduce the abundance of volatile sulfur compounds (VSCs) in an environment, and/or inhibit the production of VSCs by other microorganisms in the environment. VSCs are associated with the unpleasant odor of breath of subjects with halitosis, and reduction in VSC abundance (e.g., by VSC metabolism or inhibition of VSC production) is expected to alleviate this symptom of halitosis. Non-limiting examples of such VSCs include hydrogen sulfide, methyl mercaptan, and dimethyl sulfide, all of which give off strong and unpleasant odors.

Substance	(b) pH reduction [1]	(c) VSC reduction [2]
Bifidobacterium longum	Yes	
Lactobacillus acidophilus	Yes	Yes
Pediococcus acidilactici	Yes	Yes

— patent US12576115B2, “Bacterial compositions for treating and preventing halitosis” (Imvela Corp., priority 2023, dated 2026)
